The text below walks through data of patent publication US10638756B2, “Molecules having pesticidal utility, and intermediates, compositions, and processes, related thereto” (Dow AgroSciences LLC, priority 2017, dated 2020).

Structures are written as SMILES.

Assay [1] relates to Beet Armyworm (Spodoptera exigua). The assay is described as follows: Bioassay on Beet Armyworm (BAW), 128-well diet tray assay. The class given is in vivo. Conditions: for mortality at 50 µg/cm2: Spodoptera exigua, 168 h, 50 μg/cm^2 on artificial diet, second instar larvae, five to seven days, read-out: BAW % Control (or Mortality) rating. The method, then: (§1) Certain molecules disclosed in this document were tested against BAW and CL using procedures described in the following examples. In the reporting of the results, the “BAW & CL Rating Table” was used (See Table Section).
Bioassays on BAW were conducted using a 128-well diet tray assay. […] Trays were covered with a clear self-adhesive cover, vented to allow gas exchange, and held at 25° C., 14:10 light-dark for five to seven days. Percent mortality was recorded for the larvae in each well; activity in the eight wells was then averaged. The results are indicated in the table entitled “Table ABC: Biological Results” (See Table Section).

Assay [2] has as its system Cabbage Looper (Trichoplusia ni). The assay can be described thus: Bioassay on Cabbage Looper (CL), 128-well diet tray assay. The class given is in vivo. The following applies: 168 h, 50 μg/cm^2 on artificial diet, second instar larvae, five to seven days, read-out: CL % Control (or Mortality) rating. The method, then:
as §1
Bioassays on CL were conducted using a 128-well diet tray assay. One to five second instar CL larvae were placed in each well (3 mL) of the diet tray that had been previously filled with 1 mL of artificial diet to which 50 μg/cm^2 of the test molecule (dissolved in 50 μL of 90:10 acetone-water mixture) had been applied (to each of eight wells) and then allowed to dry. Trays were covered with a clear self-adhesive cover, vented to allow gas exchange, and held at 25° C., 14:10 light-dark for five to seven days. Percent mortality was recorded for the larvae in each well; activity in the eight wells was then averaged. The results are indicated in the table entitled “Table ABC: Biological Results” (See Table Section).

As usually defined, the mortality is the share of the test organisms that died. Take `CN(NC(=O)c1ccc(/C(F)=C/[C@@H](c2cc(Cl)c(Cl)c(Cl)c2)C(F)(F)F)cc1C(F)(F)F)c1ncccn1` (single isomer, unassigned) [F17]: the mortality at 50 µg/cm2 in assay [1] and in assay [2] was 50 to 100% in each case.

Regarding `CN(NC(=O)c1ccc(/C(F)=C/[C@H](c2cc(Cl)c(Cl)c(Cl)c2)C(F)(F)F)cc1C(F)(F)F)c1ncccn1` (single isomer, unassigned) [F29], the mortality at 50 µg/cm2 in assay [1] and in assay [2] was 50 to 100% each time.

As for `O=C(NNc1ncccn1)c1ccc(/C(F)=C/[C@@H](c2cc(Cl)c(Cl)c(Cl)c2)C(F)(F)F)cc1C(F)(F)F` (single isomer, unassigned) [F94], the “BAW (Table CD-2)” value worked out at 0 in assay [1] (0.005 μg/cm^2), 0 in assay [1] (0.05 μg/cm^2), 7 in assay [1] (0.5 μg/cm^2) and 100 in assay [1] (5.0 μg/cm^2). Further, the mortality at 50 µg/cm2 in assay [1] and in assay [2] was 50 to 100% in each case.

In the case of `O=C(NNc1ncccn1)c1ccc(/C(F)=C/[C@H](c2cc(Cl)c(Cl)c(Cl)c2)C(F)(F)F)cc1C(F)(F)F` (single isomer, unassigned) [F120], the “BAW (Table CD-2)” value in assay [1] (0.005 μg/cm^2), in assay [1] (0.05 μg/cm^2), in assay [1] (0.5 μg/cm^2) and in assay [1] (5.0 μg/cm^2) was 100 each time. Further, the mortality at 50 µg/cm2 in assay [1] and in assay [2] was 50 to 100% each time.

On to `O=C(NNc1ncccn1)c1ccc(/C(F)=C/C(c2cc(Cl)c(Cl)c(Cl)c2)C(F)(F)F)cc1` (centres unmarked) [1A, (Z)—N′-(Pyrimidin-2-yl)-4-(1,4,4,4-tetrafluoro-3-(3,4,5-trichlorophenyl)but-1-en-1-yl)benzohydrazide], for which the “BAW (Table CD-1)” value in assay [1] (0.05 μg/cm^2) is recorded as 0; in assay [1] (5.0 μg/cm^2) it was 25; in assay [1] (50 μg/cm^2) it was 100.

As to `CN(NC(=O)c1ccc(/C(F)=C/C(c2cc(Cl)c(F)c(Cl)c2)C(F)(F)F)cc1C(F)(F)F)c1ncccn1` (centres unmarked) [F2, (Z)-4-(3-(3,5-Dichloro-4-fluorophenyl)-1,4,4,4-tetrafluorobut-1-en-1-yl)-N′-methyl-N′-(pyrimidin-2-yl)-2-(trifluoromethyl)benzohydrazide], the mortality at 50 µg/cm2 in assay [1] and in assay [2] was 50 to 100% in each case.

Take `CSc1nccc(NNC(=O)c2ccc(/C(F)=C/C(c3cc(Cl)c(Cl)c(Cl)c3)C(F)(F)F)cc2C(F)(F)F)n1` (centres unmarked) [F5, (Z)—N′-(2-(Methylthio)pyrimidin-4-yl)-4-(1,4,4,4-tetrafluoro-3-(3,4,5-trichlorophenyl)but-1-en-1-yl)-2-(trifluoromethyl)benzohydrazide]: the mortality at 50 µg/cm2 in assay [1] and in assay [2] was 50 to 100% in each case.

`O=C(NNc1ccccn1)c1ccc(/C(F)=C/C(c2cc(Br)c(F)c(Br)c2)C(F)(F)F)cc1C(F)(F)F` (centres unmarked) [F6, (Z)-4-(3-(3,5-Dibromo-4-fluorophenyl)-1,4,4,4-tetrafluorobut-1-en-1-yl)-N′-(pyridin-2-yl)-2-(trifluoromethyl)benzohydrazide]: the mortality at 50 µg/cm2 in assay [1] and in assay [2] was 50 to 100% in each case.

`COc1cnc(N(C)NC(=O)c2ccc(/C(F)=C/C(c3cc(Cl)c(Cl)c(Cl)c3)C(F)(F)F)cc2C(F)(F)F)nc1` (centres unmarked) [F12, (Z)—N′-(5-Methoxypyrimidin-2-yl)-N′-methyl-4-(1,4,4,4-tetrafluoro-3-(3,4,5-trichlorophenyl)but-1-en-1-yl)-2-(trifluoromethyl)benzohydrazide]: the mortality at 50 µg/cm2 in assay [1] and in assay [2] was 50 to 100% throughout.

Take `O=C(NNc1nc(Cl)nc(Cl)n1)c1ccc(/C(F)=C/C(c2cc(Cl)c(Cl)c(Cl)c2)C(F)(F)F)cc1C(F)(F)F` (centres unmarked) [F13, (Z)—N′-(4,6-Dichloro-1,3,5-triazin-2-yl)-4-(1,4,4,4-tetrafluoro-3-(3,4,5-trichlorophenyl)but-1-en-1-yl)-2-(trifluoromethyl)benzohydrazide]: the mortality at 50 µg/cm2 in assay [1] and in assay [2] was 50 to 100% each time.

Consider `COC(=O)c1scc(C)c1NNC(=O)c1ccc(/C(F)=C/C(c2cc(Cl)c(Cl)c(Cl)c2)C(F)(F)F)cc1C(F)(F)F` (centres unmarked) [F15, Methyl (Z)-4-methyl-3-(2-(4-(1,4,4,4-tetrafluoro-3-(3,4,5-trichlorophenyl)but-1-en-1-yl)-2-(trifluoromethyl)benzoyl)hydrazinyl)thiophene-2-carboxylate], for which the mortality at 50 µg/cm2 in assay [1] and in assay [2] was 50 to 100% in each case.

On to `O=C(NNc1cccc(Cl)n1)c1ccc(/C(F)=C/C(c2cc(Cl)c(Cl)c(Cl)c2)C(F)(F)F)cc1C(F)(F)F` (centres unmarked) [F18, (Z)—N′-(6-Chloropyridin-2-yl)-4-(1,4,4,4-tetrafluoro-3-(3,4,5-trichlorophenyl)but-1-en-1-yl)-2-(trifluoromethyl)benzohydrazide], for which the mortality at 50 µg/cm2 in assay [1] and in assay [2] was 50 to 100% throughout.

As for `O=C(NNc1ccncn1)c1ccc(/C(F)=C/C(c2cc(Cl)c(Cl)c(Cl)c2)C(F)(F)F)cc1C(F)(F)F` (centres unmarked) [F19, (Z)—N′-(Pyrimidin-4-yl)-4-(1,4,4,4-tetrafluoro-3-(3,4,5-trichlorophenyl)but-1-en-1-yl)-2-(trifluoromethyl)benzohydrazide], the mortality at 50 µg/cm2 in assay [1] and in assay [2] was 50 to 100% throughout.

Regarding `O=C(NNc1ncccn1)c1ccc(/C(F)=C/C(c2cc(Cl)c(Cl)c(Cl)c2)C(F)(F)F)cc1Cl` (centres unmarked) [F20, (Z)-2-Chloro-N′-(pyrimidin-2-yl)-4-(1,4,4,4-tetrafluoro-3-(3,4,5-trichlorophenyl)but-1-en-1-yl)benzohydrazide], the mortality at 50 µg/cm2 in assay [1] and in assay [2] was 50 to 100% in each case.

Regarding `CS(=O)(=O)c1nc(Cl)c(Cl)c(NNC(=O)c2ccc(/C(F)=C/C(c3cc(Cl)c(Cl)c(Cl)c3)C(F)(F)F)cc2C(F)(F)F)c1Cl` (centres unmarked) [F21, (Z)-4-(1,4,4,4-Tetrafluoro-3-(3,4,5-trichlorophenyl)but-1-en-1-yl)-N′-(2,3,5-trichloro-6-methylsulfonyl-4-pyridin-4-yl)-2-(trifluoromethyl)benzohydrazide], the mortality at 50 µg/cm2 in assay [1] and in assay [2] was 50 to 100% throughout.

Take `O=C(NNc1ccc(F)cc1F)c1ccc(/C(F)=C/C(c2cc(Cl)c(Cl)c(Cl)c2)C(F)(F)F)cc1C(F)(F)F` (centres unmarked) [F26, (Z)—N′-(2,4-Difluorophenyl)-4-(1,4,4,4-tetrafluoro-3-(3,4,5-trichlorophenyl)but-1-en-1-yl)-2-(trifluoromethyl)benzohydrazide]: the mortality at 50 µg/cm2 in assay [1] and in assay [2] was 50 to 100% each time.

`O=C(NNC1=NCCCN1)c1ccc(/C(F)=C/C(c2cc(Cl)c(Cl)c(Cl)c2)C(F)(F)F)cc1C(F)(F)F` (centres unmarked) [F27, (Z)-4-(1,4,4,4-Tetrafluoro-3-(3,4,5-trichlorophenyl)but-1-en-1-yl)-N′-(1,4,5,6-tetrahydropyrimidin-2-yl)-2-(trifluoromethyl)benzohydrazide]: the mortality at 50 µg/cm2 in assay [1] and in assay [2] was 50 to 100% each time.

Take `O=C(NNc1ccccc1F)c1ccc(/C(F)=C/C(c2cc(Cl)c(Cl)c(Cl)c2)C(F)(F)F)cc1C(F)(F)F` (centres unmarked) [F28, (Z)—N′-(2-fluorophenyl)-4-(1,4,4,4-tetrafluoro-3-(3,4,5-trichlorophenyl)but-1-en-1-yl)-2(trifluoromethyl)benzohydrazide]: the mortality at 50 µg/cm2 in assay [1] and in assay [2] was 50 to 100% throughout.

With `O=C(NNc1c(Cl)cnc(Cl)c1Cl)c1ccc(/C(F)=C/C(c2cc(Cl)c(Cl)c(Cl)c2)C(F)(F)F)cc1C(F)(F)F` (centres unmarked) [F30, (Z)-4-(1,4,4,4-Tetrafluoro-3-(3,4,5-trichlorophenyl)but-1-en-1-yl)-N′-(2,3,5-trichloro-4-pyridin-4-yl)-2-(trifluoromethyl)benzohydrazide], the mortality at 50 µg/cm2 in assay [1] and in assay [2] was 50 to 100% throughout.

With `O=C(NNc1cncnc1)c1ccc(/C(F)=C/C(c2cc(Cl)c(Cl)c(Cl)c2)C(F)(F)F)cc1C(F)(F)F` (centres unmarked) [F31, (Z)—N′-(Pyrimidin-5-yl)-4-(1,4,4,4-tetrafluoro-3-(3,4,5-trichlorophenyl)but-1-en-1-yl)-2-(trifluoromethyl)benzohydrazide], the mortality at 50 µg/cm2 in assay [1] and in assay [2] was 50 to 100% each time.

`O=C(NNc1ncccn1)c1ccc(/C(F)=C/C(c2ccc(F)c(C(F)(F)F)c2)C(F)(F)F)cc1C(F)(F)F` (centres unmarked) [F32, (Z)—N′-(Pyrimidin-2-yl)-4-(1,4,4,4-tetrafluoro-3-(4-fluoro-3-(trifluoromethyl)phenyl)but-1-en-1-yl)-2-(trifluoromethyl)benzohydrazide]: the mortality at 50 µg/cm2 in assay [1] and in assay [2] was 50 to 100% throughout.

In the case of `O=C(NNc1ccnnc1)c1ccc(/C(F)=C/C(c2cc(Cl)c(Cl)c(Cl)c2)C(F)(F)F)cc1C(F)(F)F` (centres unmarked) [F33, (Z)—N′-(Pyridazin-4-yl)-4-(1,4,4,4-tetrafluoro-3-(3,4,5-trichlorophenyl)but-1-en-1-yl)-2-(trifluoromethyl)benzohydrazide], the mortality at 50 µg/cm2 in assay [1] and in assay [2] was 50 to 100% each time.
